Tested on: KRAS PDC multicell spheroid viability
Test: Anticancer human tumor 825966-067-R-J1-PDC patient-derived colon carcinoma cell line growth inhibition [KRAS2]
Details: for IC50: curve of first compound; for viability, T/C: stronger effect = lower value
Summary of the method: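 Combination screen of spheroid viability in tumor-cell co-cultures with endothelial (HUVEC) and mesenchymal stem cell stroma. Each agent was tested in half-log dilutions, topping at clinical Cmax or at 10 microM without a known Cmax.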

[1] = second compound 0.1 µM, first compound 0.000316 µM
[2] = second compound 0.1 µM, first compound 0.001 µM
[3] = second compound 0.1 µM, first compound 0.00316 µM
[4] = second compound 0.1 µM, first compound 0.01 µM
[5] = second compound 0.1 µM, first compound 0.0316 µM
[6] = second compound 0.316 µM, first compound 0.000316 µM
[7] = second compound 0.316 µM, first compound 0.001 µM
[8] = second compound 0.316 µM, first compound 0.00316 µM
[9] = second compound 0.316 µM, first compound 0.01 µM
[10] = second compound 0.316 µM, first compound 0.0316 µM
[11] = second compound 1 µM, first compound 0.000316 µM
[12] = second compound 1 µM, first compound 0.001 µM
[13] = second compound 1 µM, first compound 0.00316 µM
[14] = second compound 1 µM, first compound 0.01 µM
[15] = second compound 1 µM, first compound 0.0316 µM
[16] = second compound 3.16 µM, first compound 0.000316 µM
[17] = second compound 3.16 µM, first compound 0.001 µM
[18] = second compound 3.16 µM, first compound 0.00316 µM
[19] = second compound 3.16 µM, first compound 0.01 µM
[20] = second compound 3.16 µM, first compound 0.0316 µM
[21] = second compound 10 µM, first compound 0.000316 µM
[22] = second compound 10 µM, first compound 0.001 µM
[23] = second compound 10 µM, first compound 0.00316 µM
[24] = second compound 10 µM, first compound 0.01 µM
[25] = second compound 10 µM, first compound 0.0316 µM
[26] = second compound 0.1 µM, first compound 0.1 µM
[27] = second compound 0.316 µM, first compound 0.1 µM
[28] = second compound 1 µM, first compound 0.1 µM
[29] = second compound 3.16 µM, first compound 0.1 µM
[30] = second compound 10 µM, first compound 0.1 µM
[31] = second compound 0.1 µM, first compound 0.316 µM
[32] = second compound 0.1 µM, first compound 1 µM
[33] = second compound 0.1 µM, first compound 3.16 µM
[34] = second compound 0.1 µM, first compound 10 µM
[35] = second compound 0.316 µM, first compound 0.316 µM
[36] = second compound 0.316 µM, first compound 1 µM
[37] = second compound 0.316 µM, first compound 3.16 µM
[38] = second compound 0.316 µM, first compound 10 µM
[39] = second compound 1 µM, first compound 0.316 µM
[40] = second compound 1 µM, first compound 1 µM
[41] = second compound 1 µM, first compound 3.16 µM
[42] = second compound 1 µM, first compound 10 µM
[43] = second compound 3.16 µM, first compound 0.316 µM
[44] = second compound 3.16 µM, first compound 1 µM
[45] = second compound 3.16 µM, first compound 3.16 µM
[46] = second compound 3.16 µM, first compound 10 µM
[47] = second compound 10 µM, first compound 0.316 µM
[48] = second compound 10 µM, first compound 1 µM
[49] = second compound 10 µM, first compound 3.16 µM
[50] = second compound 10 µM, first compound 10 µM
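Further: spheroids exposed to compounds for 7 days.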
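Wherever viability, T/C is given: 100% = DMSO vehicle control viability.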

CC(=O)Nc1cccc(-n2c(=O)n(C3CC3)c(=O)c3c(Nc4ccc(I)cc4F)n(C)c(=O)c(C)c32)c1 + CC1OCC2(CCN(c3cnc(Sc4ccnc(N)c4Cl)c(N)n3)CC2)C1N
IC50 (second compound 0.1 µM): > 0.0316 µM
IC50 (second compound 0.316 µM): > 0.0316 µM
IC50 (second compound 1 µM): 0.00452 µM
IC50 (second compound 3.16 µM): 0.000827 µM
IC50 (second compound 10 µM): 0.00012 µM
viability, T/C (second compound 0.1 µM, first compound 0.0001 µM): 93.2%
viability, T/C [1]: 98.9%
viability, T/C [2]: 125%
viability, T/C [3]: 103%
viability, T/C [4]: 93.5%
viability, T/C [5]: 56.5%
viability, T/C (second compound 0.316 µM, first compound 0.0001 µM): 96.3%
viability, T/C [6]: 91.8%
viability, T/C [7]: 110%
viability, T/C [8]: 116%
viability, T/C [9]: 64.8%
viability, T/C [10]: 49.6%
viability, T/C (second compound 1 µM, first compound 0.0001 µM): 80.8%
viability, T/C [11]: 128%
viability, T/C [12]: 105%
viability, T/C [13]: 61.2%
viability, T/C [14]: 27.2%
viability, T/C [15]: 21.5%
viability, T/C (second compound 3.16 µM, first compound 0.0001 µM): 97.1%
viability, T/C [16]: 108%
viability, T/C [17]: 39.6%
viability, T/C [18]: 28.2%
viability, T/C [19]: 18.4%
viability, T/C [20]: 15.8%
viability, T/C (second compound 10 µM, first compound 0.0001 µM): 57.4%
viability, T/C [21]: 9.62%
viability, T/C [22]: 7.27%
viability, T/C [23]: 6.92%
viability, T/C [24]: 5.11%
viability, T/C [25]: 14.4%

CC(C)n1nc(-c2ccc3oc(N)nc3c2)c2c(N)ncnc21 + CC1OCC2(CCN(c3cnc(Sc4ccnc(N)c4Cl)c(N)n3)CC2)C1N
IC50 (second compound 0.1 µM): > 0.1 µM
IC50 (second compound 0.316 µM): > 0.1 µM
IC50 (second compound 1 µM): > 0.1 µM
IC50 (second compound 3.16 µM): > 0.1 µM
IC50 (second compound 10 µM): < 0.000316 µM
viability, T/C [1]: 89.9%
viability, T/C [2]: 93.2%
viability, T/C [3]: 133%
viability, T/C [4]: 162%
viability, T/C [5]: 132%
viability, T/C [26]: 138%
viability, T/C [6]: 101%
viability, T/C [7]: 115%
viability, T/C [8]: 133%
viability, T/C [9]: 166%
viability, T/C [10]: 132%
viability, T/C [27]: 109%
viability, T/C [11]: 115%
viability, T/C [12]: 111%
viability, T/C [13]: 162%
viability, T/C [14]: 170%
viability, T/C [15]: 140%
viability, T/C [28]: 84.8%
viability, T/C [16]: 125%
viability, T/C [17]: 129%
viability, T/C [18]: 140%
viability, T/C [19]: 123%
viability, T/C [20]: 127%
viability, T/C [29]: 81.2%
viability, T/C [21]: 30.2%
viability, T/C [22]: 62.6%
viability, T/C [23]: 32.7%
viability, T/C [24]: 30.8%
viability, T/C [25]: 61.5%
viability, T/C [30]: 24.8%

COC(=O)c1ccc2c(C(=Nc3ccc(N(C)C(=O)CN4CCN(C)CC4)cc3)c3ccccc3)c(O)[nH]c2c1 + CC1OCC2(CCN(c3cnc(Sc4ccnc(N)c4Cl)c(N)n3)CC2)C1N
IC50 (second compound 0.1 µM): 0.739 µM
IC50 (second compound 0.316 µM): 1.61 µM
IC50 (second compound 1 µM): 0.611 µM
IC50 (second compound 3.16 µM): 0.57 µM
IC50 (second compound 10 µM): < 0.0316 µM
viability, T/C [5]: 100%
viability, T/C [26]: 77.4%
viability, T/C [31]: 83.1%
viability, T/C [32]: 38.8%
viability, T/C [33]: 0.34%
viability, T/C [34]: 0.23%
viability, T/C [10]: 83.5%
viability, T/C [27]: 85.1%
viability, T/C [35]: 84.3%
viability, T/C [36]: 88.5%
viability, T/C [37]: 0.25%
viability, T/C [38]: 0.21%
viability, T/C [15]: 96%
viability, T/C [28]: 83.1%
viability, T/C [39]: 92.5%
viability, T/C [40]: 19.6%
viability, T/C [41]: 0.22%
viability, T/C [42]: 0.2%
viability, T/C [20]: 89.7%
viability, T/C [29]: 92.2%
viability, T/C [43]: 86.4%
viability, T/C [44]: 15.2%
viability, T/C [45]: 0.17%
viability, T/C [46]: 0.19%
viability, T/C [25]: 24.4%
viability, T/C [30]: 32.6%
viability, T/C [47]: 5.99%
viability, T/C [48]: 2.24%
viability, T/C [49]: 0.2%
viability, T/C [50]: 0.32%

COc1cc(Nc2ncc3c(n2)-c2ccc(Cl)cc2C(c2c(F)cccc2OC)=NC3)ccc1C(=O)O + CC1OCC2(CCN(c3cnc(Sc4ccnc(N)c4Cl)c(N)n3)CC2)C1N
IC50 (second compound 0.1 µM): > 10 µM
IC50 (second compound 0.316 µM): > 10 µM
IC50 (second compound 1 µM): > 10 µM
IC50 (second compound 3.16 µM): > 10 µM
IC50 (second compound 10 µM): < 0.0316 µM
viability, T/C [5]: 132%
viability, T/C [26]: 144%
viability, T/C [31]: 125%
viability, T/C [32]: 154%
viability, T/C [33]: 154%
viability, T/C [34]: 135%
viability, T/C [10]: 127%
viability, T/C [27]: 111%
viability, T/C [35]: 147%
viability, T/C [36]: 143%
viability, T/C [37]: 154%
viability, T/C [38]: 133%
viability, T/C [15]: 129%
viability, T/C [28]: 145%
viability, T/C [39]: 141%
viability, T/C [40]: 122%
viability, T/C [41]: 119%
viability, T/C [42]: 103%
viability, T/C [20]: 64.6%
viability, T/C [29]: 127%
viability, T/C [43]: 107%
viability, T/C [44]: 74.1%
viability, T/C [45]: 101%
viability, T/C [46]: 123%
viability, T/C [25]: 14.9%
viability, T/C [30]: 10.9%
viability, T/C [47]: 22%
viability, T/C [48]: 20.2%
viability, T/C [49]: 18.5%
viability, T/C [50]: 39.6%

COc1cc2nccc(Oc3ccc(NC(=O)C4(C(=O)Nc5ccc(F)cc5)CC4)cc3)c2cc1OC + CC1OCC2(CCN(c3cnc(Sc4ccnc(N)c4Cl)c(N)n3)CC2)C1N
IC50 (second compound 0.1 µM): 1.61 µM
IC50 (second compound 0.316 µM): 1.71 µM
IC50 (second compound 1 µM): 1.69 µM
IC50 (second compound 3.16 µM): 1.61 µM
IC50 (second compound 10 µM): < 0.0316 µM
viability, T/C [5]: 89.8%
viability, T/C [26]: 105%
viability, T/C [31]: 94.7%
viability, T/C [32]: 79.9%
viability, T/C [33]: 7.16%
viability, T/C [34]: 8.74%
viability, T/C [10]: 97%
viability, T/C [27]: 102%
viability, T/C [35]: 85.8%
viability, T/C [36]: 87.1%
viability, T/C [37]: 5.92%
viability, T/C [38]: 10%
viability, T/C [15]: 109%
viability, T/C [28]: 98.1%
viability, T/C [39]: 78.6%
viability, T/C [40]: 85.7%
viability, T/C [41]: 7.28%
viability, T/C [42]: 5.65%
viability, T/C [20]: 83.5%
viability, T/C [29]: 87%
viability, T/C [43]: 90.3%
viability, T/C [44]: 81.6%
viability, T/C [45]: 4.94%
viability, T/C [46]: 4.14%
viability, T/C [25]: 45.5%
viability, T/C [30]: 48.5%
viability, T/C [47]: 43.4%
viability, T/C [48]: 23.1%
viability, T/C [49]: 1.1%
viability, T/C [50]: 0.8%

O=C(c1cc(Cc2n[nH]c(=O)c3ccccc23)ccc1F)N1CCN(C(=O)C2CC2)CC1 + CC1OCC2(CCN(c3cnc(Sc4ccnc(N)c4Cl)c(N)n3)CC2)C1N
IC50 (second compound 0.1 µM): > 10 µM
IC50 (second compound 0.316 µM): > 10 µM
IC50 (second compound 1 µM): > 10 µM
IC50 (second compound 3.16 µM): > 10 µM
IC50 (second compound 10 µM): 0.985 µM
viability, T/C [5]: 78.2%
viability, T/C [26]: 67.3%
viability, T/C [31]: 82%
viability, T/C [32]: 71.1%
viability, T/C [33]: 80.6%
viability, T/C [34]: 81.4%
viability, T/C [10]: 79.2%
viability, T/C [27]: 76.2%
viability, T/C [35]: 92.6%
viability, T/C [36]: 67.6%
viability, T/C [37]: 85%
viability, T/C [38]: 86.6%
viability, T/C [15]: 77.8%
viability, T/C [28]: 91.5%
viability, T/C [39]: 75.7%
viability, T/C [40]: 68%
viability, T/C [41]: 62.5%
viability, T/C [42]: 82.2%
viability, T/C [20]: 105%
viability, T/C [29]: 109%
viability, T/C [43]: 95.1%
viability, T/C [44]: 102%
viability, T/C [45]: 102%
viability, T/C [46]: 78.1%
viability, T/C [25]: 104%
viability, T/C [30]: 89.2%
viability, T/C [47]: 77.5%
viability, T/C [48]: 54.9%
viability, T/C [49]: 17.4%
viability, T/C [50]: 17.6%
